The text below walks through data of patent publication US8580769B2, “Treatment of obesity, metabolic syndrome, and diabetes with protein kinase C inhibitors” (The United States of America as represented by the …, priority 2011, dated 2013).

Assay [1] relates to AMP-activated protein kinase. Description: AMP-activated protein kinase activity.
The target in a further assay is T1, recombinant PKC-ι (Homo sapiens, UniProt P41743).
T1 construct: purchased Biovision, Mountain View, Calif
T1 sequence (P41743 1-596): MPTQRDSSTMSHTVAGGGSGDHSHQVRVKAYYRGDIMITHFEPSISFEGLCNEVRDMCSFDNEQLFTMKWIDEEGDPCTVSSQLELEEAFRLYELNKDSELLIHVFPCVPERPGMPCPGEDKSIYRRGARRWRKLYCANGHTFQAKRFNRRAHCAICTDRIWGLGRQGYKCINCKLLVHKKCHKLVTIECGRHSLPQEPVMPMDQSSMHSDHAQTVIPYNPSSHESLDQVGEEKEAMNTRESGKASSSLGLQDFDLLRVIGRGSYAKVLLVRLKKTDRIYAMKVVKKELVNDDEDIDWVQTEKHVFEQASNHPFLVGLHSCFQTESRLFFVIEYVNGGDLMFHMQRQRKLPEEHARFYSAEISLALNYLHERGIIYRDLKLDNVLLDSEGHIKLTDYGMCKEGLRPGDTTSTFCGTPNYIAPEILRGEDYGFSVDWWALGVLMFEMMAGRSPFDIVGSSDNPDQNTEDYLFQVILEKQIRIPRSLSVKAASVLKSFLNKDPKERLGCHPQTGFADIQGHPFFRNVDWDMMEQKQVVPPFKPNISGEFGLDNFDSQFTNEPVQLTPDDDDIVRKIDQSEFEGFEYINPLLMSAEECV
The assay is described as follows: recombinant PKC-ι activity assay (PIP3-activated). The assay is classed as biochemical. Here is the method: aPKCι Assays: aPKC enzyme activity was measured as previously described (Standaert et al., J. Biol. Chem. 279:24929-24934, 2004; Sajan et al., J. Lipid Res. 50:1133-1145, 2009; Sajan et al., Diabetologia 52:1197-1207, 2009; Farese et al., J. Clin. Invest. 117:2289-2301, 2007). […] After incubation, ^32P-labeled substrate was trapped on P-81 filter paper and counted. […]

Another assay relates to FoxO1. The assay is described as follows: serine-256 phosphorylation of FoxO1 in human hepatocytes. The assay is classed as cell-based. The conditions noted are these: inhibitor alone or with insulin. How it is done:
After thawing, the hepatocytes were distributed (approximately 10^6 cells per 100 mm plate) and incubated approximately 16 hours overnight in Dulbecco's minimal essential medium containing 5% fetal calf serum, 100 units/ml sodium-penicillin, 100 μg/ml streptomycin-sulfate, 1 μM insulin and 2 μM dexamethasone. After washing, cells were incubated first for 2 hours in William's E medium (Sigma-Aldrich, St. Louis, Mo., catalog no. W1878) containing GLUTAMAX™ (Gibco/Invitrogen, Carlsbad, Calif.), 100 units/ml sodium-penicillin, 100 μg/ml streptomycin-sulfate, 10 μM insulin, 100 nM dexamethasone, and then for 2 hours in William's E medium containing 100 units/ml sodium penicillin, 100 μg/ml streptomycin-sulfate, 100 nM dexamethasone, 0.25 mg/ml transferrin, 0.25 μg/ml sodium selenite and 10 μM insulin. Cells were then washed and incubated for 3 hours in the same medium, but lacking insulin. Where indicated, an aPKC inhibitor was then added and incubation was continued for 30 min, after which, cells were treated either for 15 min with or without 100 nM insulin for acute signaling studies, or for 6 hours, with or without 1 μM insulin for expression studies. After incubation, cells were sonicated in homogenizing buffer. […]

The IC50 is the concentration that gives 50% inhibition. On to `NC(=O)c1ncn([C@@H]2C[C@H](COP(=O)(O)O)[C@@H](O)[C@H]2O)c1N` [ICAPP, 1H-imidazole-4-carboxamide, 5-amino-1-[2,3-dihydroxy-4-[(phosphonooxy)methyl]cyclopentyl]-[1R-(1α,2β,3β,4α)]], for which, in assay [1], the “AMP-activated protein kinase activity” value was “neither ICAPP nor ATM altered”. For the same compound, the IC50 on recombinant PKC-ι (10 ng recombinant PKC-ι activated by 10 fM PIP3, in vitro) lay in the range of 0.01 to 0.1 µM. In addition, in the assay on FoxO1, the FoxO1 phosphorylation result is reported as “insulin-like, or enhanced insulin, effects”.
Turning to `O=C([O-])CC([S][Au])C(=O)[O-]` (stereo not drawn) [ATM, aurothiomalate, reference compound], in assay [1], the “AMP-activated protein kinase activity” value was “neither ICAPP nor ATM altered”. The “inhibition of PIP3-activated recombinant PKC-ι” value on recombinant PKC-ι (in vitro) was “did not inhibit”. Also, the FoxO1 phosphorylation entry in the assay with FoxO1 is recorded as “insulin-like, or enhanced insulin, effects”.
